From patent US11667621B2, “Antiestrogen compounds” (STEVENS INSTITUTE OF TECHNOLOGY, priority 2018, dated 2023) come the findings set out here.

Residue numbers refer to the chain shown, from its start.

Assay in all cases: Luciferase assay, overexpressed ER (3×-ERE-TATA-Luciferase reporter)
Type in all cases: cell-based
In general terms: A reporter such as luciferase makes a cellular process visible.

One experiment deals with T1, HA-ERα D538G (Homo sapiens, UniProt P03372, D538G).
T1 construct: HA; expressed in transfected cells
T1 sequence (P03372 1-595 D538G): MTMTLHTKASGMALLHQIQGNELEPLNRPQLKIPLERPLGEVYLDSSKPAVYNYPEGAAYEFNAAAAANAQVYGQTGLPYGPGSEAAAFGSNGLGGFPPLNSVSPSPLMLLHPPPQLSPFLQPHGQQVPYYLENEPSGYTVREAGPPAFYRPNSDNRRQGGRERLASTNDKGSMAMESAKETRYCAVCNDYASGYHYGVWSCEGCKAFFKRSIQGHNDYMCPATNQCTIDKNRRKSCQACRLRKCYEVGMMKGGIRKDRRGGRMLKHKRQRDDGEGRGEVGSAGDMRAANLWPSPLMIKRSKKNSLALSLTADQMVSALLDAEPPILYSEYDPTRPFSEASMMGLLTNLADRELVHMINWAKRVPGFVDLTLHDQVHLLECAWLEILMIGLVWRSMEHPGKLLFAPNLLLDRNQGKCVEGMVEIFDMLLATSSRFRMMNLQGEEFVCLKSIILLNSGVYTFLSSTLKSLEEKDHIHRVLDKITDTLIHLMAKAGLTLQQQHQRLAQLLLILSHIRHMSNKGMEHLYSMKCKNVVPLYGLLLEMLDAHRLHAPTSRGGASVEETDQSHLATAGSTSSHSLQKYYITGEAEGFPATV
Conditions: compound concentration 1 μM, 24 hours. The method, then:
(§1) Luciferase assays were performed to determine the efficacy of the example compounds at inhibiting ER or its mutants' ability to activate transcription of genes.
(§2) Cells were plated at a density of 0.15×10^6 per well of 24 well plates one day prior to transfection. Cells were transfected with 125 ng (per well) of HA-ERα wild type or mutants, 315 ng (per well) of 3×-ERE-TATA-Luciferase reporter and 50 ng (per well) of pRL-TK Renilla Luciferase plasmid, using Xtremegene (Roche). The cells were treated with the various compounds or Fulvestrant at the indicated doses a day after transfection for 24 hours and luciferase activities were determined using the Dual-Luciferase® Reporter Assay System (Promega) according to manufacturer's instructions. Luciferase bioluminescence measurements were performed with the Veritas™ Microplate Luminometer (Promega). All experiments were conducted in triplicate and the Firefly luciferase activity was normalized with the Renilla luciferase activity of each sample.

Another experiment concerns the target T2, HA-ERα wild type (Homo sapiens, UniProt P03372).
T2 construct: HA; expressed in transfected cells
T2 sequence (P03372 1-595): T1 sequence (P03372 1-595 D538G) with G538D
Conditions: compound concentration 1 μM, 24 hours; read-out: Overexpressed ER (% Inhibition) WT. How it is done:
as §1, §2

The target of a further experiment is T3, HA-ERα Y537S (Homo sapiens, UniProt P03372, Y537S).
T3 construct: HA; expressed in transfected cells
T3 sequence (P03372 1-595 Y537S): T1 sequence (P03372 1-595 D538G) with Y537S, G538D
Conditions: compound concentration 1 μM, 24 hours. How it is done: as §1, §2

The target of a further experiment is T4, HA-ERα L536R (Homo sapiens, UniProt P03372, L536R).
T4 construct: HA; expressed in transfected cells
T4 sequence (P03372 1-595 L536R): T1 sequence (P03372 1-595 D538G) with L536R, G538D
As to conditions: compound concentration 1 μM, 24 hours. The method, then:
as §1, §2

On to `O=C(COc1cccc2c1C(=O)N(C1CCC(=O)NC1=O)C2=O)NCCCCOc1ccc(C(=C2C3CC4CC(C3)CC2C4)c2ccc(O)cc2)cc1` (centres unmarked) [Example 15, N-(4-(4-(Adamantan-2-ylidene(4-hydroxyphenyl)methyl)phenoxy)butyl)-2-((2-(2,6-dioxopiperidin-3-yl)-1,3-dioxoisoindolin-4-yl)oxy)acetamide], for which the inhibition (commonly the relative decrease from the control value, in per cent) at 1 µM on HA-ERα D538G was 93%; at HA-ERα wild type, 85%; against HA-ERα Y537S, -51%; at HA-ERα L536R, 82%.

Turning to `Cc1c(-c2ccc(O)cc2)n(Cc2ccc(OCCCCNC(=O)[C@H]3CC[C@H](C(F)(F)F)CC3)cc2)c2ccc(O)cc12` [Example 20, (trans)-N-(4-(4-((5-Hydroxy-2-(4-hydroxyphenyl)-3-methyl-1H-indol-1-yl)methyl)phenoxy)butyl)-4-(trifluoromethyl)cyclohexanecarboxamide], the inhibition at 1 µM at HA-ERα wild type is 83%.

In the case of `O=C(NCCCCOc1ccc(C(=C2CCCCC2)c2ccc(O)cc2)cc1)[C@H]1CC[C@H](C(F)(F)F)CC1` [Example 25, (trans)-N-(4-(4-(Cyclohexylidene(4-hydroxyphenyl)methyl)phenoxy)butyl)-4-(trifluoromethyl)cyclohexanecarboxamide], the inhibition at 1 µM against HA-ERα D538G is 42%; on HA-ERα wild type, 77%; on HA-ERα Y537S it was -39%; against HA-ERα L536R it was 36%.

With `O=C1CCC(N2C(=O)c3cccc(OCCOCCOCCOc4ccc(C(=C5C6CC7CC(C6)CC5C7)c5ccc(O)cc5)cc4)c3C2=O)C(=O)N1` (centres unmarked) [Example 18, 4-(2-(2-(2-(4-(Adamantan-2-ylidene(4-hydroxyphenyl)methyl)phenoxy)-ethoxy)ethoxy)ethoxy)-2-(2,6-dioxopiperidin-3-yl)isoindoline-1,3-dione], the inhibition at 1 µM against HA-ERα D538G was 86%; on HA-ERα wild type, 80%; at HA-ERα Y537S it was -75%; at HA-ERα L536R it was 84%.

As to `O=C(NCCCCOc1ccc(C(=C2CCCCC2)c2ccc(O)cc2)cc1)C12CC3CC(CC(C3)C1)C2` [Example 26, N-(4-(4-(Cyclohexylidene(4-hydroxyphenyl)methyl)phenoxy)-butyl)adamantane-1-carboxamide], the inhibition at 1 µM against HA-ERα D538G was 65%; on HA-ERα wild type it was 52%; against HA-ERα Y537S it was -32%; against HA-ERα L536R it was 69%.

As for `O=C1CCC(N2C(=O)c3cccc(OCCOCCOc4ccc(C(=C5C6CC7CC(C6)CC5C7)c5ccc(O)cc5)cc4)c3C2=O)C(=O)N1` (centres unmarked) [Example 19, 4-(2-(2-(4-(Adamantan-2-ylidene(4-hydroxyphenyl)methyl)phenoxy)-ethoxy)ethoxy)-2-(2,6-dioxopiperidin-3-yl)isoindoline-1,3-dione], the inhibition at 1 µM is 90% against HA-ERα D538G, 82% on HA-ERα wild type, -136% at HA-ERα Y537S and 83% against HA-ERα L536R.

As for `O=C(CCC1CCCCC1)NCCCCOc1ccc(C(=C2C3CC4CC(C3)CC2C4)c2ccc(O)cc2)cc1` [Example 34, N-(4-(4-(Adamantan-2-ylidene(4-hydroxyphenyl)methyl)phenoxy)butyl)-3-cyclohexylpropanamide], on HA-ERα wild type, the inhibition at 1 µM was determined as 65%.

Regarding `O=C(COc1cccc2c1C(=O)N(C1CCC(=O)NC1=O)C2=O)NCCCCCCOc1ccc(C(=C2C3CC4CC(C3)CC2C4)c2ccc(O)cc2)cc1` (centres unmarked) [Example 16, N-(6-(4-(Adamantan-2-ylidene(4-hydroxyphenyl)methyl)phenoxy)hexyl)-2-((2-(2,6-dioxopiperidin-3-yl)-1,3-dioxoisoindolin-4-yl)oxy)acetamide], the inhibition at 1 µM against HA-ERα D538G is 61%; on HA-ERα wild type it was 81%; against HA-ERα Y537S, -65%; on HA-ERα L536R, 64%.

With `O=C(NCCCCOc1ccc(C(=C2C3CC4CC(C3)CC2C4)c2ccc(O)cc2)cc1)C1CC1(F)F` (centres unmarked) [Example 32, N-(4-(4-(Adamantan-2-ylidene(4-hydroxyphenyl)methyl)phenoxy)butyl)-2,2-difluorocyclopropanecarboxamide], at HA-ERα wild type, the inhibition at 1 µM was found to be 48%.

Consider `O=C(CCC1CCCCC1)NCCCCOc1ccc(Oc2c(-c3ccc(O)cc3)sc3cc(O)ccc23)cc1` [Example 30, 3-Cyclohexyl-N-(4-(4-((6-hydroxy-2-(4-hydroxyphenyl)benzo[b]thiophen-3-yl)oxy)phenoxy)butyl)propanamide], for which the inhibition at 1 µM on HA-ERα wild type is 61%.

In the case of `Cc1c(-c2ccc(O)cc2)n(Cc2ccc(OCCCCNC(=O)C34CC5CC(CC(C5)C3)C4)cc2)c2ccc(O)cc12` [Example 21, N-(4-(4-((5-Hydroxy-2-(4-hydroxyphenyl)-3-methyl-1H-indol-1-yl)methyl)phenoxy)butyl)adamantane-1-carboxamide], on HA-ERα wild type, the inhibition at 1 µM was found to be 82%.

For `O=C(NCCCCOc1ccc(C2c3ccc(O)cc3CCC2c2ccccc2)cc1)[C@H]1CC[C@H](C(F)(F)F)CC1` (stereo partly drawn) [Example 22, (trans)-N-(4-(4-(6-Hydroxy-2-phenyl-1,2,3,4-tetrahydronaphthalen-1-yl)phenoxy)butyl)-4-(trifluoromethyl)cyclohexanecarboxamide], the inhibition at 1 µM on HA-ERα wild type is -130%.

For the compound `O=C(NCCCCOc1ccc(C(=C2C3CC4CC(C3)CC2C4)c2ccc(O)cc2)cc1)c1ccc(C(F)(F)F)cc1` [Example 33, N-(4-(4-(Adamantan-2-ylidene(4-hydroxyphenyl)methyl)phenoxy)butyl)-4-(trifluoromethyl)benzamide], on HA-ERα wild type, the inhibition at 1 µM came out at 79%.

Regarding `O=C(NCCCCOc1ccc(C(=C2C3CC4CC(C3)CC2C4)c2ccc(O)cc2)cc1)C1CC1` [Example 31, N-(4-(4-(Adamantan-2-ylidene(4-hydroxyphenyl)methyl)phenoxy)butyl)cyclopropanecarboxamide], the inhibition at 1 µM on HA-ERα wild type is 36%.
